Assay results as given in article PMC8707212, “Immunosuppressive Sesquiterpenoids from the Edible Mushroom Craterellus odoratus” (Journal of Fungi, 2021).

How the values were obtained:
[1] = Cytotoxicity on mouse spleen cells (CCK-8 assay); format: cell-based, BALB/c mice; details: female, fresh mouse spleen cells (splenic lymphocytes), BALB/c mouse spleen cells
Protocol: (§1) Female BALB/c mice were sacrificed by cervical dislocation, and their spleens were aseptically removed. After cell debris, mononuclear cell suspensions were prepared, and clumps were removed. Erythrocytes were depleted with ammonium chloride buffer solution. Lymphocytes were washed and resuspended in RPMI 1640 medium supplemented with 10% FBS, penicillin (100 U/mL), and streptomycin ([…]).
We used the Cell Counting Kit-8 (CCK-8) assay to test cytotoxicity. In brief, fresh spleen cells were obtained from female BALB/c mice (18–20 g). Spleen cells (1 × 10^6 cells) were seeded in triplicate in 96-well flat plates and cultured at 37 °C for 48 h, with or without compounds of various concentrations, in a humidified and 5% CO2-containing incubator. A certain amount of CCK-8 was added to each well during the last 8–10 h of culture. At the end of the culture, we use a microplate reader (Bio-Rad 650) to measure the OD value at 450 nm. […] Only the OD value of culture medium is used as background. The cytotoxicity of compounds was expressed as the concentration of the compounds that reduces cell viability to 50% (CC50).

B lymphocyte cells = test: LPS-induced B-cell proliferation ([3H]-thymidine uptake); format: cell-based, BALB/c mice; details: Mus musculus, spleen cells stimulated with 10 µg/mL LPS
Protocol: as §1
As mentioned above, fresh spleen cells were obtained from female BALB/c mice (18–20 g). Similarly, the 5 × 10^5 spleen cells were cultured at the same conditions. The cultures, with or without various concentrations of compounds, were stimulated with 5 µg/mL of concanavalin A (ConA) to induce the T cells’ proliferative response or 10 µg/mL of lipopolysaccharide (LPS) to induce B cells’ proliferative response. Proliferation was assessed in terms of uptake of [^3H]-thymidine during 8 h of pulsing with 25 µL/well of [^3H]-thymidine, then cells will be harvested onto glass fiber filters. A Beta scintillation counter was used to count the incorporated radioactivity. Cells treated without any stimuli were used as a negative control. The immunosuppressive activity was expressed as the concentration of the compound that inhibited T or B cell proliferation to 50% (IC50) of the control value. Both the cytotoxicity and proliferation assessment were repeated twice.

T lymphocyte cells = test: ConA-induced T-cell proliferation ([3H]-thymidine uptake); format: cell-based, BALB/c mice; details: Mus musculus, spleen cells stimulated with 5 µg/mL ConA, read-out: Con A-Induced T-Cell Proliferation IC50
Protocol: as §1

| melting point [°C] | SMILES | CC50 at 48 h [1] [µM] | IC50 (B lymphocyte cells) [µM] | IC50 (T lymphocyte cells) [µM] |
| --- | --- | --- | --- | --- |
| 180.7 to 182.4 | CC(=CCCC1(C)C2CCC(CO)(C2)C1O)C(=O)O (stereo not shown) [Compound 3, Craterodoratin C] | > 40 | 12.6 ± 1.14 | – |
| – | CC(=CC(O)CC12COC3(CO)CCC1CC32)C(=O)O (stereo not shown) [Compound 10, Craterodoratin J] | > 40 | 19.4 ± 0.48 | – |
| – | CC(=CC(=O)CC12C(=O)OC3(C)CCC1CC32)C(=O)O (stereo not shown) [Compound 12, Craterodoratin L] | > 40 | 13.7 ± 0.65 | – |
| – | CC(=CCCC1(C)C2CCC(CO)C1C2)C(=O)O (stereo not shown) [Compound 13, Craterodoratin M] | > 40 | 15.4 ± 1.03 | – |
| – | CC(=CCCC1(C)C2CCC(CO)C1(O)C2)C(=O)O (stereo not shown) [Compound 14, Craterodoratin N] | > 40 | 13.3 ± 1.29 | – |
| – | C=C1CCC2(O)CC1C2(C)CCC=C(C)C(=O)O (stereo not shown) [Compound 15, Craterodoratin O] | > 40 | 17.1 ± 1.14 | – |
| – | C=C1CCC2CC1C2(COC(C)=O)CC(O)C=C(C)C(=O)O (stereo not shown) [Compound 17, Craterodoratin Q] | > 40 | – | 31.5 ± 1.79 |
| – | C=C1C2CN(CC(=O)O)CC3C2C(C(C)C)CCC13C (stereo not shown) [Compound 19, Craterodoratin S] | > 40 | 22.7 ± 1.67 | – |
| – | CC(=CC(O)CC12COC3(C)CCC1CC32)C(=O)O (stereo not shown) [Compound 20, massarinolin B] | > 40 | 0.67 ± 0.004 | 0.98 ± 0.01 |
| – | CC(=CC1CC23C4CCC(C)(OC2O1)C3C4)C(=O)O (stereo not shown) [Compound 23, donacinoic acid A] | > 40 | 13.2 ± 0.97 | – |
